From PMC6478823, “A suite of phenotypic assays to ensure pipeline diversity when prioritizing drug-like Cryptosporidium growth inhibitors” (Nature Communications, 2019)

Tests used:
C. parvum [1] = type: cell-based, Cryptosporidium parvum; conditions: compound at EC90; for Invasion Assay: Mean % Inhibition (parasites), Average: average of replicates; for Invasion Assay: Mean % Inhibition (parasites), Replicate 1a: single biological replicate 1; for Invasion Assay: Mean % Inhibition (parasites), Replicate 2a: single biological replicate 2
Procedure: The first step in infection is host cell invasion, which involves a complex process encompassing oocyst excystation, parasite motility, adhesion, and parasitophorous vacuole formation (Fig. 2a). Our strategy to assay for compounds affecting invasion was simply to expose C. parvum to compounds immediately after triggering excystation and throughout the invasion process, and then enumerate the parasite vacuoles after 3 h, prior to allowing the parasites to replicate (summarized in Fig. 2b).
Fig. 2 Invasion Assay. a Overview of life cycle stage investigated during the invasion assay. Representative TEM images of a C. parvum oocyst and HCT-8 cell shortly after infection (Scale bar = 500 nm). b Schematic of experimental design. […] Each point represents the mean and SD of at least two biological replicates with four technical replicates per experiment.
C. parvum invasion inhibition was measured by modifying the 48 h growth inhibition assay described above. […] In parallel, Iowa strain oocysts were excysted. […] Assay plates were incubated at 37 °C and 5% CO2 for 3 h.

[2] = system: C. parvum DMC1 expression; test: Sexual differentiation assay (DMC1 expression); type: cell-based, Cryptosporidium parvum; conditions: compound at asexual EC90, 48-72 h; for Asexual to sexual differentiation: Mean % DMC1 inhibition (normalized to host nuclei), Average: average of replicates; for Asexual to sexual differentiation: Mean % DMC1 inhibition (normalized to host nuclei), Replicate 1a: single replicate 1; for Asexual to sexual differentiation: Mean % DMC1 inhibition (normalized to host nuclei), Replicate 2a: single replicate 2; for Asexual to sexual differentiation: Mean % DMC1 inhibition (normalized to host nuclei), Replicate 3a: single replicate 3
Description: We utilized DMC1 as a marker of C. parvum sexual development, and used the anti-DMC1 monoclonal antibody to develop a moderate-throughput high-content microscopy assay for characterizing anticryptosporidial compounds (Fig. 6a). […] Therefore, in order to enable numerical comparison of the ability of compounds to block sexual development with moderate throughput, we adopted a strategy of reporting the percent inhibition of DMC1 expression by the previously determined EC90 of each compound in the standard asexual development assay (Fig. 6c and Supplementary Table 2).
Fig. 6 Assay to measure asexual-to-sexual-stage conversion. a Schematic of the experimental approach. […] For b and c the mean and SD combined from at least two biological replicates with four technical replicates per experiment are shown. […] At given time points post-infection, infected cells were washed 3 times with PBS containing 111 mM of D-galactose, fixed for 15 min at room temperature with 4% paraformaldehyde in PBS, and permeabilized with 0.25% triton X-100 in PBS for 10 min at 37 °C. Cells were then washed 3 times with PBS and blocked at least overnight at 4 °C with 1% BSA in PBS (blocking buffer). Cells were stained with monoclonal antibody (1H10G7), either neat culture supernatant or 12.8 µg/mL of purified IgG in blocking buffer for 1 h at 37 °C, followed by 2 washes with PBS. Cells were then co-stained with a 1:500 dilution (4 µg/mL) of Alexa Fluor 568 goat anti-mouse IgG (Invitrogen, catalog# A-11004) and 1.33 µg/mL fluorescein-labeled Vicia villosa lectin (Vector Laboratories, catalog# FL-1231) diluted in blocking buffer for 1 h at 37 °C. Stains were then removed and 0.09 mM Hoechst 33258 (AnaSpec, catalog# AS-83219) also diluted in blocking buffer was added for another 15 min at 37 °C, followed by 2 PBS washes and imaging on a Nikon Eclipse Ti2000 epifluorescence microscope run with NIS-Elements Advanced Research software (Nikon, USA) and equipped with an EXi blue fluorescent microscopy camera (QImaging, Canada). For enumerating parasites, tiled 2 × 2 images with 15% overlapping edges were taken using a 40 × dry objective (0.7 NA), and for finer details, Z stack images were acquired using a 60 × oil objective (1.4 NA). Lectin positive cells in focus were first counted, followed by DMC1.
For compound dose-response studies, the same assay was performed in 384-well plates and imaged using a 20 × dry objective (NA = 0.45). Tiled 4 × 4 to 6 × 6 images were taken. Images were analyzed using ImageJ software and the custom macro provided in Supplementary Method 2.

C. parvum [3] = test: DNA replication assay (EdU incorporation); type: cell-based, Cryptosporidium parvum; conditions: compound at EC90; for DNA Synthesis Assay: Mean % Inhibition of EdU-labeling (normalized to parasite numbers), Average: average of replicates; for DNA Synthesis Assay: Mean % Inhibition of EdU-labeling (normalized to parasite numbers), Replicate 1: single replicate 1; for DNA Synthesis Assay: Mean % Inhibition of EdU-labeling (normalized to parasite numbers), Replicate 2: single replicate 2; for DNA Synthesis Assay: Mean % Inhibition of EdU-labeling (normalized to parasite numbers), Replicate 3: single replicate 3
Description: Following cell invasion, Cryptosporidium trophozoites grow and multiply to give rise to multinucleated type I meronts (Fig. 3a). The thymidine analog 5-ethynyl-2′-deoxyuridine (EdU) is efficiently incorporated into newly synthesized DNA, and can be detected using click chemistry. We used EdU to measure parasite intracellular DNA replication, as a surrogate for the more complex phenotype of intracellular growth and division. The approach for differentially labeling newly synthesized parasite DNA compared to host cell DNA was to take advantage of the fact that C. parvum replicates more quickly than the nearly confluent host cells. Thus, by adding EdU shortly before egress, it was possible to preferentially label replicating parasites (Fig. 3b, c). DNA staining with Hoechst labeled all of the host and parasite DNA, making it challenging to visualize and quantify parasite DNA. A simple DNA stain would also not distinguish pre-existing DNA from newly synthesized DNA (Fig. 3c). In contrast, EdU labeling only occurred with incorporation into newly synthesized DNA. Incorporated EdU was then easily stained for immunofluorescence and labeled parasites were quantified using high-content microscopy and an NIH ImageJ macro (Fig. 3c, DMSO condition). The […] hydroxyurea (10 mM), a known inhibitor of DNA replication, was used as a positive control for assay validation. […] Compounds with activity in this assay cannot be concluded to specifically target DNA replication, which is a complex phenotype.
Confluent HCT-8 cell monolayers in glass bottom plates were infected with C. parvum, and compounds were added at EC90 following invasion. At 9 h post-infection, 10 µM EdU was added, followed by incubation for another 2 h, and then washing, fixing, and staining for microscopy. […] 40 × dry objective (NA = 0.7); scale = 5 µm. Arrows indicate selected parasites with EdU-labeled DNA. d Quantification of EdU incorporation. […] Data are mean and SD of 2–5 biological replicates.
After incubation of cells with EdU for 2 h, cells were washed 3 times with PBS-D-gal and then fixed with PBS containing 4% PFA. Cells were then permeabilized and stained for EdU using the Click-iT® assay kit (Thermo Fisher Scientific, catalog# C10340) as per the manufacturer’s instructions. Cells were then imaged by focusing on parasites (note that the host cell nuclei are in a different focal plane) using a 40 × dry objective (0.7 NA) and EdU, and lectin numbers quantified using ImageJ software and the custom macro in Supplementary Method 1.

C. parvum [4] = test: Egress, motility, reinvasion assay (PV ratio); conditions: compound at EC90; for Egress and Reinvasion Assay: Mean PV ratios (19.5h:6h), Average: average of replicates; for Egress and Reinvasion Assay: Mean PV ratios (19.5h:6h), Replicate 1a: single replicate 1; for Egress and Reinvasion Assay: Mean PV ratios (19.5h:6h), Replicate 2a: single replicate 2
Procedure: For quantification of parasitophorous vacuoles over time, HCT-8 cells were grown to greater than 90% confluence in 384-well plates and infected with 11,000 oocysts after triggering excystation.

[5] = yes/no grouping by phenotypic assay result

SMILES	Invasion Assay: Mean % Inhibition (parasites), Average (C. parvum [1])	Invasion Assay: Mean % Inhibition (parasites), Replicate 1a (C. parvum [1])	Invasion Assay: Mean % Inhibition (parasites), Replicate 2a (C. parvum [1])	Asexual to sexual differentiation: Mean % DMC1 inhibition (normalized to host nuclei), Average [2]	Asexual to sexual differentiation: Mean % DMC1 inhibition (normalized to host nuclei), Replicate 1a [2]	Asexual to sexual differentiation: Mean % DMC1 inhibition (normalized to host nuclei), Replicate 2a [2]	DNA Synthesis Assay: Mean % Inhibition of EdU-labeling (normalized to parasite numbers), Average (C. parvum [3])	DNA Synthesis Assay: Mean % Inhibition of EdU-labeling (normalized to parasite numbers), Replicate 1 (C. parvum [3])	DNA Synthesis Assay: Mean % Inhibition of EdU-labeling (normalized to parasite numbers), Replicate 2 (C. parvum [3])	Egress and Reinvasion Assay: Mean PV ratios (19.5h:6h), Average (C. parvum [4])	Egress and Reinvasion Assay: Mean PV ratios (19.5h:6h), Replicate 1a (C. parvum [4])	Egress and Reinvasion Assay: Mean PV ratios (19.5h:6h), Replicate 2a (C. parvum [4])	Asexual to sexual differentiation: Mean % DMC1 inhibition (normalized to host nuclei), Replicate 3a [2]	DNA Synthesis Assay: Mean % Inhibition of EdU-labeling (normalized to parasite numbers), Replicate 3 (C. parvum [3])	other results
CCOc1ccc2cc(-c3nn(CC4CCN(C)CC4)c4ncnc(N)c34)ccc2c1 [BKI-1294]	-6.64%	12%	-26%	45.56%	58.94%	32.18%	-5.73%	-9.55%	-1.92%	1.49	1.81	1.18	–	–	–
NC[C@@H]1O[C@H](O[C@H]2[C@@H](O)[C@H](O[C@@H]3[C@@H](O)[C@H](N)C[C@H](N)[C@H]3O[C@H]3O[C@H](CO)[C@@H](O)[C@H](O)[C@H]3N)O[C@@H]2CO)[C@H](N)[C@@H](O)[C@@H]1O [Paromomycin]	-28.42%	-32%	-25%	43.80%	58.59%	65.91%	18.81%	-11.54%	39.99%	2.15	2.19	2.11	6.88%	27.99%	effect on host cell invasion / parasitophorous vacuole formation (C. parvum [1]; result in words): no significant effect on parasitophorous vacuole formation; effect on C. parvum DNA replication / EdU incorporation (C. parvum [3]; result in words): no effect on EdU incorporation
CCC(C)n1ncn(-c2ccc(N3CCN(c4ccc(OCC5COC(Cn6cncn6)(c6ccc(Cl)cc6Cl)O5)cc4)CC3)cc2)c1=O (stereo not drawn) [Itraconazole]	-29.72%	-31%	-28%	63.93%	87.85%	40.00%	-4.89%	6.01%	-18.49%	1.77	2.21	1.33	–	-2.19%	–
COc1ccc(Nc2nc(NCc3ccccc3Cl)c3ccccc3n2)cc1Cl [B-13]	82.51%	92%	73%	11.26%	30.33%	-7.82%	-3.46%	5.94%	-6.60%	1.42	1.37	1.48	–	-9.73%	Sporozoite invasion (C. parvum [1]; [5]): yes; DNA synthesis (C. parvum [3]; [5]): no
COc1ccc(NC(=O)N2CCCCN3C(CN(C)C)C(c4ccc(C#Cc5ccccc5)cc4)C3C2)cc1 (stereo not drawn) [BRD7929]	0.40%	-20%	20%	63.11%	38.81%	78.93%	93.39%	85.08%	95.72%	0.72	0.46	0.99	84.43%	99.38%	Invasion Assay: Mean % Inhibition (parasites), Replicate 3a (C. parvum [1]; single biological replicate 3): 1.85%; Asexual to sexual differentiation: Mean % DMC1 inhibition (normalized to host nuclei), Replicate 4a ([2]; single replicate 4): 50.27%; Egress and Reinvasion Assay: Mean PV ratios (19.5h:6h), Replicate 3a (C. parvum [4]; single replicate 3): 0.98; Egress and Reinvasion Assay: Mean PV ratios (19.5h:6h), Replicate 4a (C. parvum [4]; single replicate 4): 0.41; Egress and Reinvasion Assay: Mean PV ratios (19.5h:6h), Replicate 5a (C. parvum [4]; single replicate 5): 0.78
